This is an account of results in ChEMBL document CHEMBL3616453, “Recent progress in the development of small-molecule glucagon receptor antagonists” (Bioorg Med Chem Lett, 2015).

The nature of data set [1]: Half life in human. Format: ADME, organism-based. Particulars: in vivo.
The species named for data set [2] is Homo sapiens. The data set can be described thus: Toxicity in type-2 diabetic human model assessed as increase in LDL-C level at 25 mg, bid relative to control. Format: organism-based. Particulars: in vivo.
Data set [3] is filed under the species Homo sapiens. The data set can be described thus: Antidiabetic activity in type-2 diabetic human model assessed as decrease in fasting plasma glucose level at 6 mg, qd measured during night time. Type of data set: functional.
The test system of data set [4] is Homo sapiens. The experiment in a line: In vivo inhibition of gucagon receptor in type-2 diabetic human model at 6 mg, qd measured during night time relative to control. Format: functional.
Data set [5] concerns Homo sapiens. The experiment in a line: In vivo inhibition of gucagon receptor in type-2 diabetic human model at 25 mg, bid measured over 24 hrs relative to control. Type of data set: functional.
The species entered for data set [6] is Homo sapiens. The experiment in a line: Antidiabetic activity in type-2 diabetic human model assessed as decrease in fasting plasma glucose level at 10 mg, qd measured during day time. Format: functional.
The subject of data set [7] is Homo sapiens. The experiment in a line: In vivo inhibition of gucagon receptor in type-2 diabetic human model at 10 mg, qd measured during day time relative to control. Format: functional.
The species entered for data set [8] is Homo sapiens. The data set can be described thus: Antidiabetic activity in type-2 diabetic human model assessed as decrease in 24 hrs weighted mean glucose level at 10 mg, qd measured during day time. Format: functional.
The species named for data set [9] is Homo sapiens. The experiment in a line: Antidiabetic activity in type-2 diabetic human model assessed as decrease in fasting plasma glucose level at 25 mg, bid. Type of data set: functional.
The target of data set [10] is T1, Glucagon receptor (Homo sapiens, UniProt P47871). The experiment in a line: Antagonist activity at human glucagon receptor expressed in CHOK1 cells assessed as inhibition of glucagon-stimulated intracellular cAMP formation preincubated for 20 mins followed by glucagon stimulation measured after 30 mins by fluorescent plate reader analysis. Format: functional, cell-based. To be noted: CHO-K1.
T1 sequence (P47871 whole entry): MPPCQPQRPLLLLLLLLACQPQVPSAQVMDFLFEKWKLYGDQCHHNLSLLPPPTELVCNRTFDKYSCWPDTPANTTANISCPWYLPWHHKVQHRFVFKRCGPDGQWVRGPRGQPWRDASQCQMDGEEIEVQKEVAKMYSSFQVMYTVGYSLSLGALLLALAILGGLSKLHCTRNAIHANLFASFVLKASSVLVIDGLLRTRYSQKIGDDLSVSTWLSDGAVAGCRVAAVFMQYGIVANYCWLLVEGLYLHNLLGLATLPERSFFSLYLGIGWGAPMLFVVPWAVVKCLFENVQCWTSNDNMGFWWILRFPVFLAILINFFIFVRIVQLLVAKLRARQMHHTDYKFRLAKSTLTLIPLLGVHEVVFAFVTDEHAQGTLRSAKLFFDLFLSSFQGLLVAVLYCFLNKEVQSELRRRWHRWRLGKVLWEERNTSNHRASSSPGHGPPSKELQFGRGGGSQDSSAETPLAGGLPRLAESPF

Data set [11] deals with T1, Glucagon receptor. The data set can be described thus: Displacement of [125I]-glucagon from full length human glucagon receptor expressed in HEK293 cell membranes after 2 hrs by scintillation counting analysis. For orientation: Loss of bound radioactivity is the signal in a displacement assay; it reports binding, not function.
Data set [12] addresses T1, Glucagon receptor. The experiment in a line: Displacement of [125I]-glucagon from human glucagon receptor expressed in Chem-1 cell membranes after 6 to 10 hrs by scintillation proximity assay.
The target in data set [13] is T1, Glucagon receptor. The data set can be described thus: Displacement of [125I]-glucagon from human glucagon receptor expressed in HEK293 cell membranes at 10 uM after 2 hrs by microplate scintillation counting analysis relative to control.
The subject of data set [14] is Homo sapiens. The experiment in a line: Antidiabetic activity in type-2 diabetic human model assessed as reduction in HbA1c level at 40 mg, qd administered for 12 weeks measured after post last dose relative to control. On the set-up: scale not given: the % may be the effect or the level left. Format: functional.
The species named for data set [15] is Homo sapiens. The data set can be described thus: Hypoglycemic activity in human assessed as time required to glucose recovery from 50 mg/dl to >= 70 mg/dl at 200 mg (reference value: 33.3 min). Format: functional.
Data set [16] is filed under the species Homo sapiens. The data set can be described thus: Hypoglycemic activity in type-2 diabetic human assessed as time required to glucose recovery from 50 mg/dl to >= 63 mg/dl at 1 g in presence of beta blocker propranolol (reference value: 71 min). Type of data set: functional.
Data set [17] relates to Homo sapiens. The data set can be described thus: Antidiabetic activity in type-2 diabetic human model assessed as reduction in HbA1c level at 20 mg, qd administered for 12 weeks measured after post last dose relative to control. Format: functional. On the set-up: scale not given: the % may be the effect or the level left.
Data set [18] concerns Homo sapiens. The data set can be described thus: Antidiabetic activity in type-2 diabetic human model assessed as reduction in HbA1c level at 60 mg, qd administered for 12 weeks measured after post last dose relative to control. Format: functional. On the set-up: scale not given: the % may be the effect or the level left.
Data set [19] relates to Homo sapiens. The experiment in a line: Antidiabetic activity in type-2 diabetic human model assessed as reduction in HbA1c level at 80 mg, qd administered for 12 weeks measured after post last dose relative to control. Type of data set: functional. On the set-up: scale not given: the % may be the effect or the level left.
The species entered for data set [20] is Homo sapiens. The data set can be described thus: Hypoglycemic activity in human assessed as time required to glucose recovery from 50 mg/dl to >= 70 mg/dl at 1 g (reference value: 33.3 min). Type of data set: functional.
In data set [21] the target is T1, Glucagon receptor. The data set can be described thus: Antagonist activity at human glucagon receptor expressed in HEK293 cell membranes assessed as inhibition of glucagon-stimulated intracellular cAMP formation preincubated for 30 mins followed by glucagon stimulation measured after 5 mins by TR-FRET analysis. Type of data set: functional, cell-based. For orientation: Cyclic AMP is a second messenger, typically raised through Gs and lowered through Gi signalling.

The target of data set [22] is T1, Glucagon receptor. The experiment in a line: Antagonist activity at recombinant human glucagon receptor expressed in CHO cells assessed as inhibition of glucagon-stimulated intracellular cAMP formation preincubated for 30 mins followed by glucagon stimulation measured after 45 mins by LANCE assay. Type of data set: functional, cell-based.

`CCC[C@H](c1ccc(C(=O)NCCC(=O)O)cc1)[C@H](c1ccc(Cl)cc1)c1c[nH]c2c(F)cc(C)cc12` [MK-3577]: in [1], the half-life (usually how long it takes for the measured level to halve) was 4 h. The Activity in the data set listed under Homo sapiens [2] was 10%; in the data set filed under Homo sapiens [3], 17.5 mg/dL; in the data set filed under Homo sapiens [6], 7.2 mg/dL; in the data set filed under Homo sapiens [8], 18.8 mg/dL; in the data set filed under Homo sapiens [9], 31.7 mg/dL. Besides, the “inhibition (INH)” value with Homo sapiens [4] was <50%; in the data set on Homo sapiens [5], >80%; with Homo sapiens [7] it was <50%.
`Cc1cc2cc(F)ccc2nc1NC(c1ccc(C(=O)NCCC(=O)O)cc1)C1CC(C)(C)C1` (stereo unspecified): the Kb (commonly the equilibrium dissociation constant of an antagonist, usually derived from a functional assay) at Glucagon receptor [10] amounted to 33 nM.
On to `Cc1cc(C(F)(F)F)ccc1-c1ccc(NCc2cc(C(C)C)cc(C(F)(F)F)c2-c2ccc(C(=O)NCCC(=O)O)cc2)cc1Cl`, for which, on Glucagon receptor [11], the affinity, expressed as Ki, was 30 nM.
With `CCC[C@H](Nc1ccc(-n2cc(-c3ccccc3)cn2)cc1)c1ccc(C(=O)NCCC(=O)O)cc1`, the Kb at Glucagon receptor [10] turned out to be 9.5 nM. Further, the affinity at Glucagon receptor [12] corresponds to a Ki of 26 nM.
`Cc1cc(-n2cc3c(n2)CCCC3)ccc1C(CCC(F)(F)F)Nc1ccc(C(=O)N2CCC[C@@H](C(=O)O)C2)cn1` (stereo partly specified): the inhibition (as a rule, how much of the control response was suppressed) on Glucagon receptor [13] is 90%.
Regarding `COc1ccc2cc(-c3cc(-c4cc(Cl)cc(Cl)c4)nn3[C@@H](C)c3ccc(C(=O)NCCC(=O)O)cc3)ccc2c1` [MK-0893], the Activity was 1% with Homo sapiens [14], 0.6% in the data set with Homo sapiens [17], 1.5% with Homo sapiens [18] and 1.8% with Homo sapiens [19]. Further, the results for the Time in the data set listed under Homo sapiens [15], in the data set filed under Homo sapiens [16] and in the data set listed under Homo sapiens [20] were 45 min, 103 min and 59.1 min, respectively. The same compound gave a half-life in data set [1] of 60 h.
At Glucagon receptor [13], `Cc1cc(-c2ncc(C(F)(F)F)cn2)ccc1C(CCC(F)(F)F)Nc1ccc(C(=O)N2CCC[C@@H](C(=O)O)C2)cc1` (stereo partly specified) registered an inhibition of 91%.
On to `Cc1cc(Cl)ccc1-c1ccc(NCc2cc(Cl)cc(C(F)(F)F)c2-c2ccc(C(=O)NCCC(=O)O)nc2)cc1`, for which the affinity at Glucagon receptor [11], expressed as Ki, was 20 nM. Also, the IC50 – broadly, the point on the concentration scale where inhibition reaches its midpoint – at Glucagon receptor [21] was determined as 4 nM.
Consider `Cc1cc2ccccc2nc1NC(c1ccc(C(=O)NCCC(=O)O)cc1)C1CC(C)(C)C1` (stereo unspecified), for which the Kb on Glucagon receptor [10] worked out at 23 nM.
`CC(C)(C)CC[C@H](c1ccc(C(=O)NCCC(=O)O)cc1)N1C(=O)C(c2cccc(F)c2)=NC12CCC([Si](C)(C)C)CC2` (stereo partly specified): the IC50 at Glucagon receptor [22] worked out at 22 nM.
In the case of `CC1(C)CC(C(Nc2cnc(-n3cc(C(F)(F)F)cn3)nc2)c2ccc(C(=O)NCCC(=O)O)cc2)C1` (racemic), at Glucagon receptor [10], the Kb stood at 19 nM.
Take `CC(C)(C)CCOc1cccc(C2=NC3(CCC(C(C)(C)C)CC3)N([C@H](CCC(C)(C)C)c3ccc(C(=O)NCc4nn[nH]n4)cc3)C2=O)c1` (stereo partly specified): the IC50 at Glucagon receptor [22] was determined as 61 nM.
On to `Cc1cc(C(F)(F)F)ccc1-c1ccc(NCc2ccc(C(F)(F)F)cc2-c2ccc(C(=O)NCCC(=O)O)nc2)cc1Cl`, for which the Ki – broadly, the equilibrium dissociation constant of an inhibitor or competing ligand from its target – at Glucagon receptor [11] amounted to 17 nM. The IC50 at Glucagon receptor [21] came out at 22 nM.
